According to the supplement of paper PMC10307832:

Experiments:
Assay in all cases: relative viability (nuclei count vs DMSO), 5 days (fraction); higher = more cells survive
[1] = compound: C[C@@H](N)c1ccc(C(=O)Nc2ccnc3[nH]ccc23)cc1 + COc1cccc2cc(-c3nc([C@H]4CC[C@H](C(=O)O)CC4)n4ncnc(N)c34)[nH]c12 [OSI-027] (partner 0.5 µM)
In short: (§1)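 Lung cancer cell lines in 1536-well plates got either a single drug or a fixed anchor-drug dose together with five library-drug doses (not always all listed) in √10 steps, by pin tool, on the day after seeding. Nuclei were counted after 5 days, and relative viability is the treated-to-vehicle ratio of nuclei counts. Values are medians of duplicate plates.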

Tanzisertib + Linsitinib = compound: O[C@H]1CC[C@H](Nc2ncc3nc(Nc4c(F)cc(F)cc4F)n([C@H]4CCOC4)c3n2)CC1 [Tanzisertib] + C[C@]1(O)C[C@@H](c2nc(-c3ccc4ccc(-c5ccccc5)nc4c3)c3c(N)nccn32)C1 [Linsitinib] (partner 1 µM)
In short: as §1

Tanzisertib + Trametinib = compound: O[C@H]1CC[C@H](Nc2ncc3nc(Nc4c(F)cc(F)cc4F)n([C@H]4CCOC4)c3n2)CC1 [Tanzisertib] + CC(=O)Nc1cccc(-n2c(=O)n(C3CC3)c(=O)c3c(Nc4ccc(I)cc4F)n(C)c(=O)c(C)c32)c1 [Trametinib] (partner 0.02 µM)
In short: as §1

[2] = compound: C1CNCCC1C2=CC(=NN2)C3=CC=NC=C3 + CC1(C)CCC(c2ccc(Cl)cc2)=C(CN2CCN(c3ccc(C(=O)NS(=O)(=O)c4ccc(N[C@H](CCN5CCOCC5)CSc5ccccc5)c(S(=O)(=O)C(F)(F)F)c4)cc3)CC2)C1 [Navitoclax] (partner 0.5 µM)
In short: as §1

Row | Cell Line | relative viability ([1]; first compound 0.04 µM) | relative viability ([1]; first compound 0.1265 µM) | relative viability ([1]; first compound 0.4 µM) | relative viability ([1]; first compound 1.265 µM) | relative viability ([1]; first compound 4 µM) | relative viability (Tanzisertib + Linsitinib; first compound 0.08 µM) | relative viability (Tanzisertib + Linsitinib; first compound 0.253 µM) | relative viability (Tanzisertib + Linsitinib; first compound 0.8 µM) | relative viability (Tanzisertib + Linsitinib; first compound 2.53 µM) | relative viability (Tanzisertib + Linsitinib; first compound 8 µM) | relative viability (Tanzisertib + Trametinib; first compound 0.08 µM) | relative viability (Tanzisertib + Trametinib; first compound 0.253 µM) | relative viability (Tanzisertib + Trametinib; first compound 0.8 µM) | relative viability (Tanzisertib + Trametinib; first compound 2.53 µM) | relative viability (Tanzisertib + Trametinib; first compound 8 µM) | relative viability ([2]; first compound 0.08 µM) | relative viability ([2]; first compound 0.8 µM) | relative viability ([2]; first compound 2.53 µM) | relative viability ([2]; first compound 8 µM)
1 | NCI-H1666 | 0.917 | 0.979 | 0.935 | 1.14 | 1.06 | 0.834 | 0.862 | 0.832 | 0.777 | 0.933 | 0.842 | 0.839 | 0.968 | 0.862 | 0.908 | 0.807 | 0.877 | 1.06 | 1.02
2 | NCI-H1944 | 0.409 | 0.368 | 0.397 | 0.26 | 0.384 | 1.25 | 1.18 | 1.12 | 1.12 | 0.878 | 0.455 | 0.422 | 0.435 | 0.343 | 0.403 | 0.989 | 0.937 | 1.09 | 1
3 | NCI-H2023 | 0.475 | 0.435 | 0.569 | 0.476 | 0.509 | 0.702 | 0.589 | 0.759 | 0.621 | 0.56 | 0.571 | 0.538 | 0.517 | 0.439 | 0.499 | 0.909 | 1.05 | 1.06 | 0.979
4 | NCI-H1755 | 0.606 | 0.815 | 0.758 | 0.638 | 0.587 | 0.989 | 0.997 | 0.975 | 0.953 | 0.892 | 0.791 | 0.831 | 0.779 | 0.697 | 0.719 | 0.978 | 0.942 | 1.04 | 0.935
5 | NCI-H23 | 0.603 | 0.577 | 0.592 |  | 0.674 | 0.614 | 0.497 | 0.535 | 0.627 | 0.638 | 0.389 | 0.357 | 0.418 | 0.367 | 0.419 | 0.711 | 0.908 | 1.09 | 0.948
6 | 201T | 0.844 | 0.835 | 0.961 | 1.01 | 0.856 | 1.02 | 1.01 | 0.969 | 1.01 | 0.956 | 0.731 | 0.756 | 0.701 | 0.806 | 0.764 | 1.25 | 1.15 | 1.2 | 1.18
7 | NCI-H1734 | 0.627 | 0.611 | 0.549 | 0.315 | 0.563 | 1.09 | 0.902 | 0.861 | 0.871 | 0.87 | 0.652 | 0.669 | 0.709 | 0.681 | 0.721 | 0.703 | 1.01 | 0.88 | 0.852
8 | NCI-H520 | 0.287 | 0.333 | 0.329 | 0.334 | 0.335 | 1.19 | 1.11 | 0.941 | 0.832 | 0.927 | 0.734 | 0.724 | 0.814 | 0.776 | 0.646 | 1.06 | 1.01 | 1.06 | 1.28
9 | NCI-H1355 | 0.459 | 0.415 | 0.432 | 0.343 | 0.379 | 0.785 | 0.826 | 0.923 | 0.858 | 0.777 | 0.455 | 0.433 | 0.47 | 0.417 | 0.464 | 0.919 | 0.813 | 1.09 | 0.871
10 | NCI-H1915 | 0.562 | 0.64 | 0.63 |  | 0.489 | 1.07 | 1.14 | 1.08 | 1.01 | 1.11 | 0.31 | 0.306 | 0.296 | 0.268 | 0.258 | 0.798 | 0.784 | 0.78 | 0.778
11 | BEN | 0.293 | 0.307 | 0.3 | 0.314 | 0.284 | 0.875 | 0.916 | 1.11 | 0.984 | 0.904 | 1.06 | 1.09 | 1.04 | 1.08 | 1.09 | 0.0512 | 0.0642 | 0.0601 | 0.0843
12 | NCI-H3122 | 1.2 | 1.14 | 1.06 |  | 1.1 | 1.03 | 1.05 | 1.09 | 0.898 | 1.03 | 0.262 | 0.201 | 0.273 | 0.245 | 0.237 | 0.98 | 1.05 | 0.979 | 1.03
13 | SK-MES-1 | 0.61 | 0.574 | 0.573 | 0.673 | 0.602 | 1.08 | 1.06 | 1.06 | 1.12 | 0.832 | 0.618 | 0.549 | 0.54 | 0.493 | 0.385 | 1.26 | 1.36 | 1.37 | 1.2
14 | HOP-62 | 0.819 | 0.76 | 0.852 | 0.745 | 0.821 | 0.924 | 1.14 | 1.13 | 1.04 | 0.918 | 0.389 | 0.341 | 0.435 | 0.412 | 0.346 | 1.06 | 1.21 | 1.13 | 1.03
15 | HCC-366 | 0.787 | 0.847 | 0.993 |  | 1.08 | 0.757 | 0.59 | 0.691 | 0.576 | 0.419 |  | 0.39 | 0.376 | 0.292 | 0.258 | 1.02 | 1.12 | 1.07 | 1.08
16 | NCI-H2347 | 0.502 | 0.494 | 0.414 |  | 0.631 | 1.08 | 0.973 | 1.08 | 1.09 | 1.3 | 0.256 | 0.255 | 0.261 | 0.259 | 0.29 | 0.784 | 0.556 | 0.855 | 0.823
17 | LXF-289 | 0.639 | 0.821 | 0.986 | 0.709 | 0.763 | 1.04 | 0.916 | 1.04 | 0.995 | 1.04 | 0.694 | 0.691 | 0.748 | 0.663 | 0.82 | 0.957 | 1.02 | 0.977 | 0.934
